# Columns and labels:
# [1] = tested on: embryonic-like stem cells derived from placenta; assay: Immunostaining for CD34, CD45 and CD105 in cultured placental stem cells (ratios to TNC, Table 3); assay type: cell-based, human; settings: for CD34/TNC / CD45/TNC / CD105/TNC: placental conditioned media, 14 days in culture
# Experimental: (§1) The cells were scored for the expression of CD34 (a marker of early hematopoietic progenitor cells; also an endothelial cell marker), CD45 (a marker of all hematopoietic cells except erythrocytes), CD105 (a marker of proliferating endothelial cells), smooth muscle cell (SMC)-specific myosin heavy chain, nestin ([…]), and glial fibrillary acidic protein (GFAP). Ratios of CD34 cells/TNC (Total Number of Cells), CD45 cells/TNC and CD105 cells/TNC were also determined.
# In another experiment, the results of which are summarized in Table 3, embryonic-like stem cells derived from placenta were cultured, using the conditions described in the umbilical vessel ring assay described above, in the presence of placenta-conditioned medium with DMSO (negative control), Thalomid™, Actimid™ or Revimid™. After 14 days in culture, the cells were then immunostained for expression of CD34+, CD45+ and CD 105+.
# [2] = tested on: embryonic-like stem cells derived from placenta; assay: Marker expression of cultured embryonic-like stem cells (staining score, Table 2); assay type: cell-based, human; design: key to SMC-specific Myosin HC / GFAP / CD34+ / CD45+: −: no staining; +/−: <20% staining; +: 20-50% staining; ++: 50-75% staining; +++: >75% staining; settings: for CD34+ / CD45+ / GFAP / Nestin / SMC-specific Myosin HC: placental conditioned media, fourteen days of culture
# Experimental: The following experiments evaluated the effects of Thalomid™, Actimid™ and Revimid™ on the morphological differentiation of embryonic-like stem cells derived from placenta. The morphological differentiation of cultured embryonic-like stem cells was evaluated after fourteen days of culture in the presence of placental conditioned medium and with DMSO (control), EGCF, Thalomid™, Actimid™ or Revimid™.
# Embryonic-like stem cells were isolated from placenta as described above in Section 5.4. The embryonic-like stem cells were cultured using the culture conditions described above.
# as §1
# In Table 2, the scoring was as follows: • −: no staining; +/−: <20% staining+: 20-50% staining; ++: 50-75% staining; +++: >75% staining.
# rat aortic rings = assay: Rat aortic angiogenesis assay; assay type: cell-based, Sprague Dawley rats
# Experimental: Twelve well tissue culture grade plates were covered with 250 μl of Matrigel and allowed to gel for 30-45 min at 370 C, 5% Co2. Thoracic aortas were excised from eight to ten week old male Sprague Dawley rats and the fibroadipose tissue was removed. The aortas were sectioned into 1 mm long sections, rinsed eight times with EGM-2 (Clonetics Corp), placed on the Matrigel coated wells, covered with additional 250 μl Matrigel, and allowed to gel for 30-45 min at 370 C. The rings were cultured for 24 hours in 2 ml of EGM-2. After 24 hours, recombinant murine endostatin was reconstituted in EBM and added as a single treatment on day 1. Thalidomide was added at different concentrations (1 μg/ml, 5 μg/ml, 10 μg/ml, 50 μg/ml and 100 μg/ml) in the presence or absence of rabbit microsomes as noted in the Table 5. Aortic rings were photographed on days.
# [3] = tested on: human umbilical cord vessel rings; assay: Human angiogenesis assay (umbilical artery vessel rings in Matrigel); assay type: cell-based; settings: for Microvessel Growth (% Inhibition): vs 0.1% DMSO, three weeks, average of two rings
# Excerpt: Fresh human umbilical cords were collected by trained medical personnel under fill donor informed consent from local hospitals. The cords were transported and treated within three hours. Umbilical cords and vessel lumens were rinsed with chilled basal nutrient medium. The artery was removed from the cord using mechanical means, forceps and small surgical scissors in an aseptic field. The vessel was cleaned of connective tissue and vessel rings were cut cross-wise in a length of 1 mm. The rings were placed into EGM-2 medium (Clonetics Corp.) in a 50 ml conical bottom tube and stored at 4° C. Six-well tissue culture plates were covered with […] of Matrigel and allowed to gel for 30-45 min at 37° C., under 5% CO2. The vessel rings were rinsed in EGM-2 medium and placed on the Matrigel-coated wells, covered with additional 250 μl Matrigel, and allowed to gel for 30-45 min at 37° C. (see FIG. 6). The vessels were cultured for 24 hours in 4 ml of EGM-2 to allow the tissue to adapt to its new environment. After 24 hours incubation, the rings were treated either with 0.1% DMSO as control, or different concentrations of compounds (thalidomide or CC4047). Culture medium was changed twice per week for total of three weeks.
# The effects of compounds on cultured vessel rings were compared with the effect of DMSO on vessel rings. The results were analyzed using Image-Pro® Plus software (MediaCybernetics, Inc. Carlsbad, Calif.).
# These experiments were done in duplicates and the results are the average of two rings in same experiment. A different concentration of Fumagillin is used as positive control in this experiment.
# [4] = tested on: embryonic-like stem cells derived from placenta; assay: Total vessel area/field and branching/bifurcation of cultured placental embryonic-like stem cells (Table 4); assay type: cell-based, human; design: key to Branching/Bifurcation (+/−): +: a branch or bifurcation was observed; −: no branch or bifurcation was observed
# Experimental: In another experiment, the results of which are summarized in Table 4, embryonic-like stem cells derived from placenta were cultured, using the culture conditions described above, and in the presence of EGCF, DMSO, Thalomid™, Actimid™ or Revimid™.
# A “+” means that a branch or bifurcation was observed and a “−” means that no branch or bifurcation was observed. […] See also FIGS. 3A, 3B
smiles,measurement,setting,value
"O=C1CCC(N2C(=O)c3ccccc3C2=O)C(=O)N1 (centres unmarked) [Thalomid, thalidomide, reference compound]",CD34/TNC,[1]; 10 μg/ml,0.64
same,CD45/TNC,[1]; 10 μg/ml,3.87
same,CD105/TNC,[1]; 10 μg/ml,6.8
same,CD34/TNC,[1]; 100 μg/ml,0.38
same,CD45/TNC,[1]; 100 μg/ml,4.21
same,CD105/TNC,[1]; 100 μg/ml,7.0
same,"numbers of cells expressing CD34, CD45 and CD 105",[1]; summary of Table 3,decrease
same,CD34+,[2]; 10 μg/mL,+/− (<20% staining)
same,CD45+,[2]; 10 μg/mL,+ (20-50% staining)
same,GFAP,[2]; 10 μg/mL,−
same,Nestin,[2]; 10 μg/mL,+ (20-50% staining)
same,SMC-specific Myosin HC,[2]; 10 μg/mL,−
same,CD34+,[2]; 100 μg/mL,−
same,CD45+,[2]; 100 μg/mL,+ (20-50% staining)
same,GFAP,[2]; 100 μg/mL,+ (20-50% staining)
same,Nestin,[2]; 100 μg/mL,+ (20-50% staining)
same,SMC-specific Myosin HC,[2]; 100 μg/mL,−
same,"numbers of cells expressing CD34, CD45 and smooth muscle cell (SMC)-specific myosin heavy chain",[2]; summary of Table 2,decreased
same,numbers of cells expressing nestin and glial fibrillary acidic protein (GFAP),[2]; summary of Table 2,increased
same,mean microvessel growth (% of control),"rat aortic rings; 10 μg/ml, + Rabbit microsomes",16.6 % of control
same,mean microvessel growth (% of control),"rat aortic rings; 10 μg/ml, without microsomes",60 % of control
same,mean microvessel growth (% of control),"rat aortic rings; 50 μg/ml, + Rabbit microsomes",17.6 % of control
same,mean microvessel growth (% of control),"rat aortic rings; 50 μg/ml, without microsomes",82 % of control
same,need of rabbit microsomes for inhibition of vessel formation,rat aortic rings; summary of Table 5,requires the addition of rabbit microsome in order to show efficient inhibition of vessel formation
same,Microvessel Growth (% Inhibition),[3]; 0..1 μM,40 % Inhibition
same,Microvessel Growth (% Inhibition),[3]; 1 μM,81.4 % Inhibition
same,Microvessel Growth (% Inhibition),[3]; 10 μM,100 % Inhibition
same,formation of microvessel outgrowth,[3]; compared with DMSO treated samples,inhibited the formation of microvessel outgrowth in a dose dependent manner
same,need of microsomes for activity,"[3]; human ring assay, compared with rat ring results",no need for either human or rabbit microsome
same,Branching/Bifurcation (+/−),[4]; 1 μg/ml,−
same,Total Vessel Area/Field (% Coverage),[4]; 1 μg/ml,24.1 +/− 4.4 % Coverage
same,Branching/Bifurcation (+/−),[4]; 10 μg/ml,−
same,Total Vessel Area/Field (% Coverage),[4]; 10 μg/ml,14.8 +/− 7.2 % Coverage
same,branching and/or bifurcation exhibited by the cells,[4]; summary of Table 4,decreases the branching and/or bifurcation exhibited by the cells
same,total vessel area/field covered by the cells,[4]; summary of Table 4,decrease in the total vessel area/field covered by the cells

# Source: patent publication US20050148034A1, “Methods for identification of modulators of angiogenesis, compounds discovered thereby, and methods of treatment using the compounds” (priority 2002, published 2005)
